# Measurements: patent US6166050A, “3,4-diamino-3-cyclobutene-1,2-dione derivatives which inhibit leukocyte adhesion mediated by VLA-4” (American Home Products Corporation, priority 1999, dated 2000)
# Biological target: T1, α4 β1 integrin (VLA-4) (Homo sapiens, UniProt P05556+P13612)
# T1 construct: Jurkat cells (ATCC #TIB-153) which express high levels of α4 β1 integrin (VLA-4); host or cells: Jurkat cells
# Experiment: Monovalent FACS Assay for α4 β1 Integrin/VCAM-1 Binding (inhibition of soluble VCAM-1 binding to Jurkat cells)
# Conditions: not given
# Procedure: The foregoing compounds were tested for VLA-4 binding activity using the following monvalent FACS assay. The IC50 for a compound reflects 50% receptor occupancy.
# Monovalent FACS Assay for α4 β1 Integrin/VCAM-1 Binding
# The VLA-4 binding activity of exemplary compounds was measured by measuring the inhibition of the interaction of soluble VCAM-1 with Jurkat cells (ATCC #TIB-153) which express high levels of α4 β1 integrin (VLA-4) using a modification of the fluorescence activated cell sorter (FACS) assay described by Yednock, et al., J. Biol. Chem., 1995, 270:28740. VCAM-1 interacts with the cell surface in an α4 β1 integrin-dependent fashion.
# Jurkat cells were grown in RPMI 1640 supplemented with 10% fetal bovine serum, penicillin, streptomycin and glutamine as described by Yednock, supra.
# Recombinant soluble VCAM-1 (rsVCAM-1) was produced in a baculovirus expression system as a chimeric fusion protein containing the seven immunoglobulin domains of VCAM-1 on the N-terminus and the human IgG1 heavy chain constant region on the C-terminus as described by Yednock, supra. Supernatant containing approximately 10 ug/ml rsVCAM-1 was collected after 72 hours and used in the assay without purification.
# Jurkat cells (approximately 10^7 cells/ml) were treated with 1.5 mM MnCl2 and 5 μg/ml 15/7 for 30 minutes on ice to activate β1 integrin. Mn^+2 activates the receptor to enhance ligand binding, and 15/7 is a monoclonal antibody that recognizes an activated/ligand occupied conformation of α4 β1 integrin and locks the molecule into this conformation thereby stabilizing the VCAM-1/α4 β1 integrin interaction. Yednock, et al., supra. Antibodies similar to 15/7 have been prepared and may be used in this assay. For example, see, Luque, et al., 1996, J. Bio. Chem., 271: 11067.
# Aliquots of 25 μl cells were incubated for 30 minutes at room temperature with compounds using a standard 5-point serial dilution. 15 μl of rsVCAM-Fc-containing baculovirus supernatant was added to the cells and incubated for 30 minutes on ice as described in Yednock, et al., supra.
# Cells were washed twice and resuspended in 100 μl of a 1:100 dilution of FITC-conjugated goat anti-human IgG to detect the human Ig-VCAM-1 construct diluted in assay media containing 2.5% mouse serum to block potential cross-reactivity with cell surface bound 15/7. Cells were incubated on ice for 30 minutes in the dark. Cells were washed twice and analyzed with a standard FACS analysis as described in Yednock, et al., supra. on a FACScan flow cytometer (Becton Dickinson, Mountain View, Calif.).
# T1 sequence (P13612 34-1032): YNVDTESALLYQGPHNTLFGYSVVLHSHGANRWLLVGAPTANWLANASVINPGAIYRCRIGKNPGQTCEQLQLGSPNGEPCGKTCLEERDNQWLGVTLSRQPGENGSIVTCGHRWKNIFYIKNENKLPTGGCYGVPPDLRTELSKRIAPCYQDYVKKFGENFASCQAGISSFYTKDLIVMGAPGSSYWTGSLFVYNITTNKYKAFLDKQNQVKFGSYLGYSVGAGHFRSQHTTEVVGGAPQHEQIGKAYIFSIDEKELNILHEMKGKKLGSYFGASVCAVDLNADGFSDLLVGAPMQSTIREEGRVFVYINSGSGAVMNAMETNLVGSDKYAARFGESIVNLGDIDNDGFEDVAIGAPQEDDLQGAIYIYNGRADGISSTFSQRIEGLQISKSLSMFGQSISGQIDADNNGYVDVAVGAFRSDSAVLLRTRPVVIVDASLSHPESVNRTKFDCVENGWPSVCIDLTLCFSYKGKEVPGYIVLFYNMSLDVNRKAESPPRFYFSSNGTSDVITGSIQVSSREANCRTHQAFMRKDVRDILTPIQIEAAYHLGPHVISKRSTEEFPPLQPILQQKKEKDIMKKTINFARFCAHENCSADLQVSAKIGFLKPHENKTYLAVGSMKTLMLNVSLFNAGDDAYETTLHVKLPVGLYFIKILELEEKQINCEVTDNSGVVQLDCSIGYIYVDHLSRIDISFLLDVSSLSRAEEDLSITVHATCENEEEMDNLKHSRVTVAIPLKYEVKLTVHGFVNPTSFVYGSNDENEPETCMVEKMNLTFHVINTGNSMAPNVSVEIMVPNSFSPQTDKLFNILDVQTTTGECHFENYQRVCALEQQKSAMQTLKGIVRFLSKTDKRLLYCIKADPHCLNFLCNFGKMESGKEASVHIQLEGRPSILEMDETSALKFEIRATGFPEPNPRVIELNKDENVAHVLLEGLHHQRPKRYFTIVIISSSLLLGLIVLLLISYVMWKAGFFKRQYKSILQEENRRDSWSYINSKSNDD
# T1 sequence (P05556 21-798): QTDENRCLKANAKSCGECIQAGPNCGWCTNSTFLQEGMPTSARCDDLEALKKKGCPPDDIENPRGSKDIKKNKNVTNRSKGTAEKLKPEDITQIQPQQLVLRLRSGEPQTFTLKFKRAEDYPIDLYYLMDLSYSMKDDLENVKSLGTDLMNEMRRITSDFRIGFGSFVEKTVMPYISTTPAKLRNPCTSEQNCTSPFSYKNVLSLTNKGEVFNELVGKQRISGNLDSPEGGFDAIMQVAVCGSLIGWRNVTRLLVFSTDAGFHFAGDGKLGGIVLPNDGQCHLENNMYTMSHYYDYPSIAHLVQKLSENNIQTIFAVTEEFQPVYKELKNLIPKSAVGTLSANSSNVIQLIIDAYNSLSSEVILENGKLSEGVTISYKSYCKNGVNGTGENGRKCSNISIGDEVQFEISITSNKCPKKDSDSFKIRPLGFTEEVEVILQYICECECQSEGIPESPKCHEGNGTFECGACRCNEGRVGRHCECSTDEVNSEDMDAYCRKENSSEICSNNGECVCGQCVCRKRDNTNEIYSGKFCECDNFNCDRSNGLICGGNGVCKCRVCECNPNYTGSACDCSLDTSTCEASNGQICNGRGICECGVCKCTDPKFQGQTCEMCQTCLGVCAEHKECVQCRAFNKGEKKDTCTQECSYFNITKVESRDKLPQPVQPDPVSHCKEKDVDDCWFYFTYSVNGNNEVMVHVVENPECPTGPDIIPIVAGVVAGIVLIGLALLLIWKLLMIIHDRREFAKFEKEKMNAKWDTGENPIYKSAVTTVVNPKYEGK
row,Compound,IC50
1,"CN1CCN(C(=O)Oc2ccc(C[C@H](Nc3c(N(C)CCc4ccccc4)c(=O)c3=O)C(=O)O)cc2)CC1 [Example 66, (2S)-3-[4-(4-methylpiperazinyl)carbamoyloxy-phenyl]-2-[2-(methyl-phenethyl-amino)-3,4-dioxo-cyclobut-1-enylamino]-propionic acid]",0.5 nM
2,"CN1CCN(C(=O)Oc2ccc(C[C@H](Nc3c(N(C)CCc4ccncc4)c(=O)c3=O)C(=O)O)cc2)CC1 [Example 68, (2S)-3-[4-(4-methylpiperazinyl)carbamoyloxy-phenyl)-2-{2-[methyl-(2-pyridin-4-yl-ethyl)-amino]-3,4-dioxo-cyclobut-1-enylamino}-propionic acid]",1.3 nM

# Same assay, conditions: Jurkat cells, rsVCAM-1; IC50 reflects 50% receptor occupancy; unit nM; read-out: IC50 (FACS)
row,Compound,IC50
1,"CCCCCCN(CCCCCC)c1c(N[C@@H](Cc2ccc(NC(=O)c3ccccc3)cc2)C(=O)O)c(=O)c1=O [Example 26, (S)-3-(4-Benzoylamino-phenyl)-2-(2-dihexylamino-3,4-dioxo-cyclobut-1-enylamino)-propionic acid]",150 nM
2,"CCCCCCN(CCCCCC)c1c(N[C@@H](Cc2cn(Cc3ccccc3)cn2)C(=O)O)c(=O)c1=O [Example 29, (S)-3-(1-Benzyl-1H-imidazol-4-yl)-2-(2-dihexylamino-3,4-dioxo-cyclobut-1-enylamino)-propionic acid]",631 nM
3,"CCCCCCN(CCCCCC)c1c(N[C@@H](Cc2ccc(OCCCN(C)C)cc2)C(=O)O)c(=O)c1=O [Example 32, N-(2-Dihexylamino-3,4-dioxo-cyclobut-1-enylamino)-O-(3-dimethylamino-propyl)-L-tyrosine]",12 nM
4,"CN(CCc1ccncc1)c1c(N[C@@H](Cc2ccc(NC(=O)c3ccncc3)cc2)C(=O)O)c(=O)c1=O [Example 35, N-[2-[Methyl[2-(4-pyridinyl)ethyl]amino]-3,4-dioxo-1-cyclobuten-1yl]-4-[(4-pyridinylcarbonyl)amino]-L-phenylalanine]",15 nM
5,"CN(CCc1ccccc1)c1c(N[C@@H](Cc2ccc(NC(=O)c3ccncc3)cc2)C(=O)O)c(=O)c1=O [Example 37, N-[2-[Methyl(2-phenylethyl)amino]-3,4-dioxo-1-cyclobuten-1-yl]-4-[(4-pyridinylcarbonyl)amino]-L-phenylalanine]",2.2 nM
6,"CCCCCCN(CCCCCC)c1c(N[C@@H](Cc2ccc(NC(=O)c3ccncc3)cc2)C(=O)O)c(=O)c1=O [Example 39, N-[2-(Dihexylamino)-3,4-dioxo-1-cyclobuten-1-yl]-4-[(4-pyridinylcarbonyl)amino]-L-phenylalanine]",1.3 nM
7,"CN(Cc1cccnc1)c1c(N[C@@H](Cc2ccc(NC(=O)c3ccncc3)cc2)C(=O)O)c(=O)c1=O [Example 41, N-[2-(Methyl-pyridin-3-ylmethyl-amino)-3,4-dioxo-cyclobut-1-enyl]-4-[(pyridine-4-carbonyl)-amino]-L-phenylalanine]",26 nM
8,"CCCCCCN(CCCCCC)c1c(N[C@@H](Cc2ccc(NC(=O)c3cccnc3)cc2)C(=O)O)c(=O)c1=O [Example 44, N-[2-(Dihexylamino)-3,4-dioxo-1-cyclobuten-1-yl]-4-[(3-pyridinylcarbonyl)amino]-L-phenylalanine]",6.5 nM
9,CN(CCc1ccncc1)c1c(N[C@@H](Cc2ccc(NC(=O)c3cccnc3)cc2)C(=O)O)c(=O)c1=O [Example 46],40 nM
10,"CN(Cc1cccnc1)c1c(N[C@@H](Cc2ccc(NC(=O)c3cccnc3)cc2)C(=O)O)c(=O)c1=O [Example 48, N-[2-(Methyl-pyridin-3-ylmethyl-amino)-3,4-dioxo-cyclobut-1-enyl]-4-[(pyridine-3-carbonyl)-amino]-L-phenylalanine]",160 nM
11,CCCCCCN(CCCCCC)c1c(N[C@@H](Cc2ccc(NC(=O)C3CCN(C(=O)OCc4ccccc4)CC3)cc2)C(=O)O)c(=O)c1=O [Example 53],71 nM
12,CN(C)C(=O)Oc1ccc(C[C@H](Nc2c(N(C)CCc3ccccc3)c(=O)c2=O)C(=O)O)cc1 [Example 57],0.9 nM
13,"CCCCCCN(CCCCCC)c1c(N[C@@H](Cc2ccc(OC(=O)N(C)C)cc2)C(=O)O)c(=O)c1=O [Example 59, (2S)-2-(2-Dihexylamino-3,4-dioxo-cyclobut-1-enylamino)-3-(4-dimethylcarbamoyloxy-phenyl)-propionic acid]",0.6 nM
14,"CN(C)C(=O)Oc1ccc(C[C@H](Nc2c(N(C)Cc3cccnc3)c(=O)c2=O)C(=O)O)cc1 [Example 61, (2S)-3-(4-Dimethylcarbamoyloxy-phenyl)-2-[2-(methyl-pyridin-3-ylmethyl-amino)-3,4-dioxo-cyclobut-1-enylamino]-propionic acid]",8.3 nM
15,"CN(C)C(=O)Oc1ccc(C[C@H](Nc2c(N(C)CCc3ccncc3)c(=O)c2=O)C(=O)O)cc1 [Example 63, (2S)-3-(4-Dimethylcarbamoyloxy-phenyl)-2-{2-[methyl-(2-pyridin-4-yl-ethyl)-amino]-3,4-dioxo-cyclobut-1-enylamino}-propionic acid]",1.6 nM
16,CCCCCCN(CCCCCC)c1c(N[C@@H](Cc2ccc(OC(=O)N3CCN(C)CC3)cc2)C(=O)O)c(=O)c1=O [Example 70],0.2 nM

# Same assay, conditions: Jurkat cells, rsVCAM-1; IC50 reflects 50% receptor occupancy; unit μM; read-out: IC50 (FACS)
row,Compound,IC50
1,"O=C(O)[C@H](Cc1ccccc1)Nc1c(NCc2ccccc2)c(=O)c1=O [Example 3, [2-(Benzylamino)-3,4-dioxo-cyclobut-1-enyl]-L-phenylalanine]",58000 nM
2,"O=C(O)[C@H](Cc1ccccc1)Nc1c(NC(c2ccccc2)c2ccccc2)c(=O)c1=O [Example 5, [2-(benzhydrylamino)-3,4-dioxo-cyclobut-1-enyl]-L-phenylalanine]",101000 nM
3,"O=C(O)[C@H](Cc1ccccc1)Nc1c(NCCc2c[nH]c3ccccc23)c(=O)c1=O [Example 7, 2-{2-[2-(1H-Indol-3-yl)-ethylamino]-3,4-dioxo-cyclobut-1-enylamino}-L-phenylalanine]",52000 nM
4,"O=C(O)[C@H](Cc1ccccc1)Nc1c(NCc2cccnc2)c(=O)c1=O [Example 9, {3,4-Dioxo-2-[(pyridin-3-ylmethyl)-amino]-cyclobut-1-enyl}-L-phenylalanine]",116000 nM
5,"CCCCCCN(Cc1ccccc1)c1c(N[C@@H](Cc2ccccc2)C(=O)O)c(=O)c1=O [Example 11, [2-(Benzyl-hexyl-amino)-3,4-dioxo-cyclobut-1-enyl]-L-phenylalanine]",4400 nM
6,"O=C(O)[C@H](Cc1ccccc1)Nc1c(N(Cc2ccccc2)Cc2ccccc2)c(=O)c1=O [Example 13, (2-Dibenzylamino-3,4-dioxo-cyclobut-1-enylamino)-L-phenylalanine]",4400 nM
7,"CCCCCCN(CCCCCC)c1c(N[C@@H](Cc2ccccc2)C(=O)O)c(=O)c1=O [Example 15, (S)-2-(2-Dihexylamino-3,4-dioxo-cyclobut-1-enylamino)-3-phenyl-propionic acid]",1500 nM
8,"CCCCCCN(Cc1ccc2ccccc2c1)c1c(N[C@@H](Cc2ccccc2)C(=O)O)c(=O)c1=O [Example 17, (S)-2-[2-(Hexyl-naphthalen-2-ylmethyl-amino)-3,4-dioxo-cyclobut-1-enylamino]-3-phenyl-propionic acid]",36000 nM
9,"CCCCCCN(Cc1ccc(N(C)C)cc1)c1c(N[C@@H](Cc2ccccc2)C(=O)O)c(=O)c1=O [Example 19, (S)-2-{2-[(4-Dimethylamino-benzyl)-hexyl-amino]-3,4-dioxo-cyclobut-1-enylamino}-3-phenyl-propionic acid]",13000 nM
10,"O=C(O)[C@H](Cc1ccccc1)Nc1c(N2CCN(c3ccccc3)CC2)c(=O)c1=O [Example 21, N-[3,4-Dioxo-2-(4-phenyl-piperazin-1-yl)-cyclobut-1-en-1-yl]-L-phenylalanine]",86000 nM
11,"CC(=O)N1CCN(c2c(N[C@@H](Cc3ccccc3)C(=O)O)c(=O)c2=O)CC1 [Example 23, (S)-2-[2-(4-Acetyl-piperazin-1-yl)-3,4-dioxo-cyclobut-1-enylamino]-3-phenyl-propionic acid]",40000 nM
12,"CN(CCc1ccncc1)c1c(N[C@@H](Cc2ccccc2)C(=O)O)c(=O)c1=O [Example 50, N-{2-[Methyl-(2-pyridin-4-yl-ethyl)-amino]-3,4-dioxo-cyclobut-1-enyl}-L-phenylalanine]",9000 nM
